{"source": "patent US20240076667A1", "about": "“APPLICATION OF ANTISENSE OLIGONUCLEOTIDE TARGETING PBX1 PROMOTER REGION G-QUADRUPLEX IN PREPARATION OF MEDICINE FOR TREATING MELANOMA” (JILIN UNIVERSITY, priority 2022, published 2024)", "key": {"B16-F10 cells": {"tested_on": "B16-F10 cells", "experiment": "In vivo tumor metastasis assay, B16-F10 tail vein injection", "parameters": "species or system mice", "conditions": "B16-F10 tail vein; PDS 5 mg/kg twice a day, 16 consecutive days", "procedure": "In vivo tumor metastasis assay: 2×10^5 B16-F10 cells are injected into the tail vein of tail vein tumor. According to solutions formulated by the NCI Animal Care and Use Committee, metastatic endpoints are determined for each experiment by maximal primary tumor burden and/or appearance of moribund mice in all treatment groups. PDS (5 mg/kg) is administered twice a day, for 16 consecutive days.\nBioluminescent tumor cell tracking: in vivo whole-animal imaging, anesthetized mice are injected intraperitoneally with 3 mg of d-luciferin (MCE, USA). Luminescence data is collected on an IVIS system (Perkin Elmer, USA). For live tissue imaging, tissues are perfused with PBS, harvested, and incubated in PBS with 1 μg/ml-1d-luciferin. Data analysis is performed using an IVIS Image software package."}, "[1]": {"tested_on": "patient-derived melanoma xenograft (PDX)", "experiment": "PDX model of melanoma in NCG mice", "type": "in vivo", "conditions": "PDX; intravenous injection 20 mg/kg every two days for 21 days; vs PBX1 ASO scramble", "procedure": "PDX model of melanoma: fresh tumor tissues are collected immediately after surgery, placed in RPMI 1640 medium containing penicillin/streptomycin (100 U/ml; 100 μg/ml), fungal zone (1 μg/ml) and Genta Mycin (50 μg/ml) (all from Gibco, USA) (4,5). According to the institutional review and the ethical guidelines for this study approved by the Ethics Committee of the Second Hospital of Jilin University, fresh tumor samples from patients suffering from melanoma are collected for transplantation with informed consent. The mice were kept and all procedures are performed under the approval and supervision of the Institutional Animal Care and Use Committee (IACUC) of the School of Public Health of Jilin University (Changchun, China). Necrotic tissues are excised before transplantation, and tumor tissues are minced to a size of 2×2×2 mm^3, and implanted subcutaneously in the flank of 6-week-old NCG male mice to generate first-generation (F1) PDX mice. Successfully transplanted tumor models are passaged and stored using standard methods. H&E staining is used to evaluate the morphology of patient tumor specimens and xenografts of established PDX models. Treatment with ASO Scr or ASO (intravenous injection, 20 mg/kg) is initiated when the tumor volume of the mice reached 220-280 mm^3. Tumor growth and body weight measurements are performed. Tumors are dissected at the end of treatment for further processing for RNA, protein and histological analysis.\nControl:mG*mT*mC*mC*mA*mC*mA*mA*mA*mC*mA*mC*mA*mA*mC*mT*mC* mC*mT*mG*). […] This example also establishes short-term cultures of patient-derived melanoma xenograft (PDX)-derived tumor cells (PDCs) (FIG. 5D). […] To further expand the analysis, this embodiment establishes the PDX model of melanoma, and […] is administered intravenously (intravenous injection) every two days for 21 days."}}, "data": [{"compound": "NCCOc1cc(C(=O)Nc2cc(OCCN)c3ccccc3n2)nc(C(=O)Nc2cc(OCCN)c3ccccc3n2)c1", "note": "[PDS, Pyridostatin]", "values": [{"measurement": "metastasis of xenograft tumors (lung)", "setting": "B16-F10 cells", "result": "remarkably inhibits"}, {"measurement": "tumor growth", "setting": "[1]", "result": "inhibits"}]}]}
